Measurements from PMC11369193, “Structural insights into human ABCD3-mediated peroxisomal acyl-CoA translocation” (Cell Discovery, 2024).
One block for each molecule: values may come before it.

Columns and labels:
[1] = biological target: chimeric ABCD3 (chABCD3): N-terminal 50 residues of C. elegans PMP2 fused to the core domains of human ABCD3, wild type (Caenorhabditis elegans | human) (UniProt P28288); assay: cryo-EM structure; purified chABCD3 (~10 mg/mL) in digitonin with 0.5 mM phytanoyl-CoA; C2 symmetry; inward-facing conformation; 2.9 Å
chABCD3 [2] = test system: T1, chABCD3; assay: ATPase activity, malachite green phosphate assay; format: biochemical, Homo sapiens; settings: LMNG + CHS detergent; 20 mM Tris-HCl pH 7.5, 2 mM MgCl2, 37 °C; no acyl-CoA (basal)
T1 construct: gene ABCD3; C. elegans PMP2 residues 1-50 fused to human ABCD3 residues 51-659, N-terminal FLAG tag, HEK293F, homodimer; PMP2 segment invisible in structures; with Peroxisomal Membrane Protein related (Caenorhabditis elegans)

chABCD3 [3] = test system: T1, chABCD3; assay: ATPase activity, malachite green phosphate assay; cryo-EM structure […] Å (GDN); format: biochemical, Homo sapiens; settings: LMNG + CHS detergent; 20 mM Tris-HCl pH 7.5, 2 mM MgCl2, 37 °C; no acyl-CoA (basal); structure with 10 mM ATP/Mg2+
chABCD3 [4] = biological target: T1, chABCD3; assay: stimulation of ATPase activity, malachite green phosphate assay; cryo-EM structure […] Å (digitonin); format: biochemical, Homo sapiens; settings: 2 mM ATP; LMNG + CHS; 20 mM Tris-HCl pH 7.5, 2 mM MgCl2, 37 °C; activation of ATPase; two sites per dimer
[5] = substrate: Nc1ncnc2c1ncn2[C@@H]1O[C@H](COP(=O)(O)OP(=O)(O)OP(=O)(O)O)[C@@H](O)[C@H]1O; assay: ATPase activity, malachite green phosphate assay; format: biochemical, Homo sapiens; settings: LMNG + CHS detergent, 20 mM Tris-HCl pH 7.5, 2 mM MgCl2, 37 °C, no acyl-CoA (basal)

Molecule: chimeric ABCD3 (chABCD3): N-terminal 50 residues of C. elegans PMP2 fused to the core domains of human ABCD3, wild type (from UniProt P28288 51-659)
stoichiometry N [1]: 2

B1: hABCD3 (Homo sapiens) (protein)
chain: MAAFSKYLTARNSSLAGAAFLLLCLLHKRRRALGLHGKKSGKPPLQNNEKEGKKERAVVDKVFFSRLIQILKIMVPRTFCKETGYLVLIAVMLVSRTYCDVWMIQNGTLIESGIIGRSRKDFKRYLLNFIAAMPLISLVNNFLKYGLNELKLCFRVRLTKYLYEEYLQAFTYYKMGNLDNRIANPDQLLTQDVEKFCNSVVDLYSNLSKPFLDIVLYIFKLTSAIGAQGPASMMAYLVVSGLFLTRLRRPIGKMTITEQKYEGEYRYVNSRLITNSEEIAFYNGNKREKQTVHSVFRKLVEHLHNFILFRFSMGFIDSIIAKYLATVVGYLVVSRPFLDLSHPRHLKSTHSELLEDYYQSGRMLLRMSQALGRIVLAGREMTRLAGFTARITELMQVLKDLNHGKYERTMVSQQEKGIEGVQVIPLIPGAGEIIIADNIIKFDHVPLATPNGDVLIRDLNFEVRSGANVLICGPNGCGKSSLFRVLGELWPLFGGRLTKPERGKLFYVPQRPYMTLGTLRDQVIYPDGREDQKRKGISDLVLKEYLDNVQLGHILEREGGWDSVQDWMDVLSGGEKQRMAMARLFYHKPQFAILDECTSAVSVDVEGYIYSHCRKVGITLFTVSHRKSLWKHHEYYLHMDGRGNYEFKQITEDTVEFGS
notes: full-length (659 residues), codon-optimized, N-terminal FLAG tag, expressed in HEK293F; LMNG + CHS detergent
Km [5]: 240 µM

Now from value to molecule:

Km (chABCD3 [2]): 160 µM
Km (chABCD3 [3]): 190 µM
Molecule: Nc1ncnc2c1ncn2[C@@H]1O[C@H](COP(=O)(O)OP(=O)(O)OP(=O)(O)O)[C@@H](O)[C@H]1O [ATP]

EC50 (chABCD3 [4]): ~0.46 µM
Molecule: CC(C)CCCC(C)CCCC(C)CCCC(C)CC(=O)SCCNC(=O)CCNC(=O)[C@H](O)C(C)(C)COP(=O)(O)OP(=O)(O)OC[C@H]1O[C@@H](n2cnc3c(N)ncnc32)[C@H](O)[C@@H]1OP(=O)(O)O (some centres unmarked) [phytanoyl-CoA]
